# Tests used:
# Experiment in all cases: relative viability (nuclei count vs DMSO), 5 days (fraction); higher = more cells survive
# [1] = compound: C1=CC2=C(C=CC(=C2)C=C3C(=O)NC(=NCC4=CC=CS4)S3)N=C1 [RO-3306] + COc1cccc2cc(-c3nc([C@H]4CC[C@H](C(=O)O)CC4)n4ncnc(N)c34)[nH]c12 [OSI-027] (partner 0.5 µM)
# Summary of the method: (§1)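 Lung cancer cell lines, seeded in 1536-well plates, were treated the following day by pin tool with a single drug or with five library-drug doses (not always all listed) in √10 steps on top of a fixed anchor-drug dose. Cells were fixed and nuclei stained in one step after 5 days, and nuclei were counted. Relative viability is the nuclei count for treated wells divided by that for vehicle wells, reported as medians of duplicate plates.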
# [2] = compound: C1=CC2=C(C=CC(=C2)C=C3C(=O)NC(=NCC4=CC=CS4)S3)N=C1 [RO-3306] + Cc1nc(NC(=O)N2CCC[C@H]2C(N)=O)sc1-c1ccnc(C(C)(C)C(F)(F)F)c1 [Alpelisib] (partner 2 µM)
# Summary of the method: as §1
# [3] = compound: O=S(=O)(c1ccccc1)N(CC(F)(F)F)c1ccc(C(O)(C(F)(F)F)C(F)(F)F)cc1 + CC(C)C[C@H](NC(=O)[C@H](Cc1ccccc1)NC(=O)c1cnccn1)B(O)O [Bortezomib] (partner 0.002 µM)
# Summary of the method: as §1
# [4] = compound: O=S(=O)(c1ccccc1)N(CC(F)(F)F)c1ccc(C(O)(C(F)(F)F)C(F)(F)F)cc1 + Cc1nc(Nc2ncc(C(=O)Nc3c(C)cccc3Cl)s2)cc(N2CCN(CCO)CC2)n1 [Dasatinib] (partner 0.075 µM)
# Summary of the method: as §1
cell line,measurement,setting,value
201T,relative viability,[1]; first compound 0.01 µM,0.586
same,relative viability,[1]; first compound 0.03162 µM,0.729
same,relative viability,[1]; first compound 0.1 µM,0.709
same,relative viability,[1]; first compound 0.3162 µM,0.779
same,relative viability,[1]; first compound 1 µM,0.672
same,relative viability,[2]; first compound 0.01 µM,1.03
same,relative viability,[2]; first compound 0.03162 µM,1.01
same,relative viability,[2]; first compound 0.1 µM,1.05
same,relative viability,[2]; first compound 0.3162 µM,0.973
same,relative viability,[2]; first compound 1 µM,1.04
same,relative viability,[3]; first compound 0.8 µM,1.02
same,relative viability,[3]; first compound 2.53 µM,1.04
same,relative viability,[3]; first compound 8 µM,1
same,relative viability,[4]; first compound 0.8 µM,0.463
same,relative viability,[4]; first compound 2.53 µM,0.435
same,relative viability,[4]; first compound 8 µM,0.497
A549,relative viability,[2]; first compound 0.01 µM,0.744
same,relative viability,[2]; first compound 0.1 µM,0.72
same,relative viability,[2]; first compound 0.3162 µM,0.756
same,relative viability,[2]; first compound 1 µM,0.715
A-427,relative viability,[1]; first compound 0.01 µM,0.459
same,relative viability,[1]; first compound 0.03162 µM,0.457
same,relative viability,[1]; first compound 0.1 µM,0.423
same,relative viability,[1]; first compound 0.3162 µM,0.451
same,relative viability,[1]; first compound 1 µM,0.497
same,relative viability,[2]; first compound 0.01 µM,1.13
same,relative viability,[2]; first compound 0.03162 µM,0.575
same,relative viability,[2]; first compound 0.1 µM,1
same,relative viability,[2]; first compound 0.3162 µM,1.06
same,relative viability,[2]; first compound 1 µM,1.02
same,relative viability,[3]; first compound 0.8 µM,0.973
same,relative viability,[3]; first compound 2.53 µM,0.916
same,relative viability,[3]; first compound 8 µM,1.07
same,relative viability,[4]; first compound 0.8 µM,0.737
same,relative viability,[4]; first compound 2.53 µM,0.653
same,relative viability,[4]; first compound 8 µM,0.846
ABC-1,relative viability,[1]; first compound 0.01 µM,0.411
same,relative viability,[1]; first compound 0.03162 µM,0.375
same,relative viability,[1]; first compound 0.1 µM,0.402
same,relative viability,[1]; first compound 0.3162 µM,0.483
same,relative viability,[1]; first compound 1 µM,0.403
same,relative viability,[2]; first compound 0.01 µM,1.07
same,relative viability,[2]; first compound 0.03162 µM,1.07
same,relative viability,[2]; first compound 0.1 µM,1.22
same,relative viability,[2]; first compound 0.3162 µM,0.939
same,relative viability,[2]; first compound 1 µM,1.22
same,relative viability,[3]; first compound 0.8 µM,0.27
same,relative viability,[3]; first compound 2.53 µM,0.297
same,relative viability,[3]; first compound 8 µM,0.293
same,relative viability,[4]; first compound 0.8 µM,0.649
same,relative viability,[4]; first compound 2.53 µM,0.531
same,relative viability,[4]; first compound 8 µM,0.654
BEN,relative viability,[1]; first compound 0.01 µM,0.333
same,relative viability,[1]; first compound 0.03162 µM,0.3
same,relative viability,[1]; first compound 0.1 µM,0.256
same,relative viability,[1]; first compound 0.3162 µM,0.297
same,relative viability,[1]; first compound 1 µM,0.283
same,relative viability,[2]; first compound 0.01 µM,1.3
same,relative viability,[2]; first compound 0.03162 µM,0.738
same,relative viability,[2]; first compound 0.1 µM,0.926
same,relative viability,[2]; first compound 0.3162 µM,1.09
same,relative viability,[2]; first compound 1 µM,1.08
same,relative viability,[3]; first compound 0.8 µM,0.843
same,relative viability,[3]; first compound 2.53 µM,0.844
same,relative viability,[3]; first compound 8 µM,0.866
same,relative viability,[4]; first compound 0.8 µM,0.252
same,relative viability,[4]; first compound 2.53 µM,0.275
same,relative viability,[4]; first compound 8 µM,0.333
CAL-12T,relative viability,[1]; first compound 0.01 µM,0.378
same,relative viability,[1]; first compound 0.03162 µM,0.615
same,relative viability,[1]; first compound 0.1 µM,0.585
same,relative viability,[1]; first compound 0.3162 µM,0.616
same,relative viability,[1]; first compound 1 µM,0.597
same,relative viability,[2]; first compound 0.01 µM,1.38
same,relative viability,[2]; first compound 0.03162 µM,1.26
same,relative viability,[2]; first compound 0.1 µM,1.17
same,relative viability,[2]; first compound 0.3162 µM,1.19
same,relative viability,[2]; first compound 1 µM,1.37
same,relative viability,[3]; first compound 2.53 µM,0.964
same,relative viability,[3]; first compound 8 µM,0.958
same,relative viability,[4]; first compound 0.8 µM,0.331
same,relative viability,[4]; first compound 2.53 µM,0.216
same,relative viability,[4]; first compound 8 µM,0.392
COR-L23,relative viability,[1]; first compound 0.01 µM,0.741
same,relative viability,[1]; first compound 0.03162 µM,0.688
same,relative viability,[1]; first compound 0.1 µM,0.783
same,relative viability,[1]; first compound 0.3162 µM,0.632
same,relative viability,[1]; first compound 1 µM,0.514
same,relative viability,[2]; first compound 0.01 µM,0.898
same,relative viability,[2]; first compound 0.1 µM,0.866
same,relative viability,[2]; first compound 0.3162 µM,0.631
same,relative viability,[2]; first compound 1 µM,0.75
same,relative viability,[3]; first compound 0.8 µM,1.18
same,relative viability,[3]; first compound 2.53 µM,0.945
same,relative viability,[3]; first compound 8 µM,0.914
same,relative viability,[4]; first compound 0.8 µM,0.591
same,relative viability,[4]; first compound 2.53 µM,0.461
same,relative viability,[4]; first compound 8 µM,0.5
COR-L 105,relative viability,[1]; first compound 0.01 µM,0.589
same,relative viability,[1]; first compound 0.03162 µM,0.607
same,relative viability,[1]; first compound 0.1 µM,0.64
same,relative viability,[1]; first compound 0.3162 µM,0.864
same,relative viability,[1]; first compound 1 µM,0.735
same,relative viability,[2]; first compound 0.01 µM,1.36
same,relative viability,[2]; first compound 0.03162 µM,0.835
same,relative viability,[2]; first compound 0.1 µM,1.06
same,relative viability,[2]; first compound 0.3162 µM,1.09
same,relative viability,[2]; first compound 1 µM,0.998
same,relative viability,[3]; first compound 0.8 µM,0.846
same,relative viability,[3]; first compound 2.53 µM,0.75
same,relative viability,[3]; first compound 8 µM,0.702
same,relative viability,[4]; first compound 0.8 µM,0.299
same,relative viability,[4]; first compound 2.53 µM,0.4
same,relative viability,[4]; first compound 8 µM,0.363
Calu-6,relative viability,[2]; first compound 0.01 µM,1.21
same,relative viability,[2]; first compound 0.03162 µM,0.91
same,relative viability,[2]; first compound 0.1 µM,1.04
same,relative viability,[2]; first compound 0.3162 µM,0.931
same,relative viability,[2]; first compound 1 µM,0.982
same,relative viability,[3]; first compound 0.8 µM,0.885
same,relative viability,[3]; first compound 2.53 µM,0.852
same,relative viability,[3]; first compound 8 µM,0.769
ChaGo-K-1,relative viability,[1]; first compound 0.01 µM,0.59
same,relative viability,[1]; first compound 0.03162 µM,0.365
same,relative viability,[1]; first compound 0.1 µM,0.455
same,relative viability,[1]; first compound 0.3162 µM,0.474
same,relative viability,[1]; first compound 1 µM,0.341
same,relative viability,[3]; first compound 0.8 µM,1.1
same,relative viability,[3]; first compound 2.53 µM,0.933
same,relative viability,[3]; first compound 8 µM,1.47
same,relative viability,[4]; first compound 0.8 µM,0.706
same,relative viability,[4]; first compound 2.53 µM,0.648
same,relative viability,[4]; first compound 8 µM,0.637
EBC-1,relative viability,[2]; first compound 0.01 µM,0.895
same,relative viability,[2]; first compound 0.03162 µM,0.727
same,relative viability,[2]; first compound 0.1 µM,1.04
same,relative viability,[2]; first compound 0.3162 µM,0.965
same,relative viability,[2]; first compound 1 µM,0.904
same,relative viability,[3]; first compound 0.8 µM,0.405
same,relative viability,[3]; first compound 2.53 µM,0.357
same,relative viability,[3]; first compound 8 µM,0.415
EKVX,relative viability,[1]; first compound 0.01 µM,0.757
same,relative viability,[1]; first compound 0.03162 µM,0.646
same,relative viability,[1]; first compound 0.1 µM,0.661
same,relative viability,[1]; first compound 0.3162 µM,0.955
same,relative viability,[1]; first compound 1 µM,0.684
same,relative viability,[2]; first compound 0.01 µM,0.958
same,relative viability,[2]; first compound 0.03162 µM,0.833
same,relative viability,[2]; first compound 0.1 µM,0.841
same,relative viability,[2]; first compound 0.3162 µM,1.02
same,relative viability,[2]; first compound 1 µM,0.83
same,relative viability,[3]; first compound 0.8 µM,1.1
same,relative viability,[3]; first compound 2.53 µM,0.918
same,relative viability,[3]; first compound 8 µM,1.15
same,relative viability,[4]; first compound 0.8 µM,0.525
same,relative viability,[4]; first compound 2.53 µM,0.514
same,relative viability,[4]; first compound 8 µM,0.335
